Results as given in ChEMBL document CHEMBL1147604, “Dipeptidyl aspartyl fluoromethylketones as potent caspase-3 inhibitors: SAR of the P2 amino acid” (Bioorg Med Chem Lett, 2004).

Experiments:
Caspase-7 = target: T1, Caspase-7 (Homo sapiens, UniProt P55210); assay: Compound was evaluated for its inhibitory activity against the Caspase-7 enzyme
T1 sequence (P55210 whole entry): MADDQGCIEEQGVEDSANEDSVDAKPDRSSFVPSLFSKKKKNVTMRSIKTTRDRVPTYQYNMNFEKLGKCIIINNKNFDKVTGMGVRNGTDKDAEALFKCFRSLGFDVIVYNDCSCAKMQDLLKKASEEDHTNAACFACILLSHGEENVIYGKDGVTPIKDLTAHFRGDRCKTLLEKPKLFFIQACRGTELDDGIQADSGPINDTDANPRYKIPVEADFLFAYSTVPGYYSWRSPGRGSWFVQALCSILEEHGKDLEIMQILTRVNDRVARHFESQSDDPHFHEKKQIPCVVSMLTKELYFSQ

Caspase-1 = target: T2, Caspase-1 (Homo sapiens, UniProt P29466); assay: Compound was evaluated for its inhibitory activity against the Caspase-1 enzyme
T2 sequence (P29466 whole entry): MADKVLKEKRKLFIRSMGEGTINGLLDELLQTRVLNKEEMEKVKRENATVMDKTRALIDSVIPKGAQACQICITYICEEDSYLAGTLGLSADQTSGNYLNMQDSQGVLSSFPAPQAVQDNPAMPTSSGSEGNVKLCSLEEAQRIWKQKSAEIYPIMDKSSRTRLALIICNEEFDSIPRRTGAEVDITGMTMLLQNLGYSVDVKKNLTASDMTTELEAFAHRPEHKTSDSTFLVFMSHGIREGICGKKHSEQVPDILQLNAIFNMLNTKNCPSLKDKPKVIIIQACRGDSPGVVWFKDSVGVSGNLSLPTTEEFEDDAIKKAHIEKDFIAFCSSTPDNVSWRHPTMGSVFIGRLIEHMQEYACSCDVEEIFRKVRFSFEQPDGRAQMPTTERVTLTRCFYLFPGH

Caspase-9 = target: T3, Caspase-9 (Homo sapiens, UniProt P55211); assay: Compound was evaluated for its inhibitory activity against the Caspase-9 enzyme
T3 sequence (P55211 whole entry): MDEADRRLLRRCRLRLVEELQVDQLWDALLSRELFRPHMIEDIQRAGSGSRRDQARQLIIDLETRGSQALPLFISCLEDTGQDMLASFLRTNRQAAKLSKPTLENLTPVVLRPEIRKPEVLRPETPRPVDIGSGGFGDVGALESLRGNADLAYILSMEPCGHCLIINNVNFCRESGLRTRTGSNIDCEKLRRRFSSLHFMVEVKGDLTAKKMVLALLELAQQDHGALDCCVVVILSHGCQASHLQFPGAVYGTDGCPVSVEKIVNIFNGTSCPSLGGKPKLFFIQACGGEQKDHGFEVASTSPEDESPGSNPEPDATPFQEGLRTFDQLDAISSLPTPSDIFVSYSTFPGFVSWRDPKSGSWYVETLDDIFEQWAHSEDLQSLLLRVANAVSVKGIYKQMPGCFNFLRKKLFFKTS

Caspase-6 = target: T4, Caspase-6 (Homo sapiens, UniProt P55212); assay: Compound was evaluated for its inhibitory activity against the Caspase-6 enzyme
T4 sequence (P55212 whole entry): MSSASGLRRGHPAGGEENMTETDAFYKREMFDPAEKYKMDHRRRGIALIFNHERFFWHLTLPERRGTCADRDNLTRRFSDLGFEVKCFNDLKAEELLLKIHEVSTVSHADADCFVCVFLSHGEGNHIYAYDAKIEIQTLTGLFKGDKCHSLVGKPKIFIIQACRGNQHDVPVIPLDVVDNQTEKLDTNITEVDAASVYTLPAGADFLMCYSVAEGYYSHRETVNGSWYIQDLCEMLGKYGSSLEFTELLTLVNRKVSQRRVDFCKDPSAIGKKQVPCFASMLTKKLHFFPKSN

Prothrombin = Prothrombin (Homo sapiens, UniProt P00734); assay: Compound was evaluated for its inhibitory activity against the Thrombin
Coagulation factor X = Coagulation factor X (Homo sapiens, UniProt P00742); assay: Compound was evaluated for its inhibitory activity against the Coagulation factor X
Chain of Coagulation factor X (P00742 41-179 limits assumed): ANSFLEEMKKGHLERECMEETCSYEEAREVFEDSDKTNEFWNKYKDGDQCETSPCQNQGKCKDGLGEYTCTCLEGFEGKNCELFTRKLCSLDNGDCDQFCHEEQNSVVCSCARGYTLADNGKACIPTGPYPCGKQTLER
Chain of Coagulation factor X (P00742 235-488 limits assumed): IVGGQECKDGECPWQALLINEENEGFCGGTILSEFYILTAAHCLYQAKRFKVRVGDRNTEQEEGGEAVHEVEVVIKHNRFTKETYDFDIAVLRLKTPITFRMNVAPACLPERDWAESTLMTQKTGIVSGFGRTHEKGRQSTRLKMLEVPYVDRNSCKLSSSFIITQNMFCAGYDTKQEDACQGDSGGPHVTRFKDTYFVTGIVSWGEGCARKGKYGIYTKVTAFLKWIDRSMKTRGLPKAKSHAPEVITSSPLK

Caspase-8 = Caspase-8 (Homo sapiens, UniProt Q14790); assay: Compound was evaluated for its inhibitory activity against the Caspase-8 enzyme
Chain of Caspase-8 (Q14790 217-374 limits assumed): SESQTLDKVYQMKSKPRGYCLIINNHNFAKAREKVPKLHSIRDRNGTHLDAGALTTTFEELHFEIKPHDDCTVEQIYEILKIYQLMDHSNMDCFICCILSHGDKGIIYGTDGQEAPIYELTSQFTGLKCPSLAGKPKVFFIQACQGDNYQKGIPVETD
Chain of Caspase-8 (Q14790 385-479 limits assumed): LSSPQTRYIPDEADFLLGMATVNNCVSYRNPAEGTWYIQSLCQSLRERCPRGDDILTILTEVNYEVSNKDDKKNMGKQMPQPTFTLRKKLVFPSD

Caspase-3 = target: T5, Caspase-3 (Homo sapiens, UniProt P42574); assay: Inhibitory activity against human recombinant Caspase-3 enzyme
T5 sequence (P42574 whole entry): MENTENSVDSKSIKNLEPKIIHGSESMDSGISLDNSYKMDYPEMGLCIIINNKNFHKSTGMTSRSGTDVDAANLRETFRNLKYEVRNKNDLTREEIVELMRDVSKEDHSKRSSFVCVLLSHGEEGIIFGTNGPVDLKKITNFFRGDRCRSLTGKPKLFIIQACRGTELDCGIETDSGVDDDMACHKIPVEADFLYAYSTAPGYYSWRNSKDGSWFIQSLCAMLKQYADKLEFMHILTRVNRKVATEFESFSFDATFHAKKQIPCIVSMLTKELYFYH

[1] = target: T6, Calpain-1 catalytic subunit (Homo sapiens, UniProt P07384); assay: Compound was evaluated for its inhibitory activity against the Calpain 1 enzyme
T6 sequence (P07384 whole entry): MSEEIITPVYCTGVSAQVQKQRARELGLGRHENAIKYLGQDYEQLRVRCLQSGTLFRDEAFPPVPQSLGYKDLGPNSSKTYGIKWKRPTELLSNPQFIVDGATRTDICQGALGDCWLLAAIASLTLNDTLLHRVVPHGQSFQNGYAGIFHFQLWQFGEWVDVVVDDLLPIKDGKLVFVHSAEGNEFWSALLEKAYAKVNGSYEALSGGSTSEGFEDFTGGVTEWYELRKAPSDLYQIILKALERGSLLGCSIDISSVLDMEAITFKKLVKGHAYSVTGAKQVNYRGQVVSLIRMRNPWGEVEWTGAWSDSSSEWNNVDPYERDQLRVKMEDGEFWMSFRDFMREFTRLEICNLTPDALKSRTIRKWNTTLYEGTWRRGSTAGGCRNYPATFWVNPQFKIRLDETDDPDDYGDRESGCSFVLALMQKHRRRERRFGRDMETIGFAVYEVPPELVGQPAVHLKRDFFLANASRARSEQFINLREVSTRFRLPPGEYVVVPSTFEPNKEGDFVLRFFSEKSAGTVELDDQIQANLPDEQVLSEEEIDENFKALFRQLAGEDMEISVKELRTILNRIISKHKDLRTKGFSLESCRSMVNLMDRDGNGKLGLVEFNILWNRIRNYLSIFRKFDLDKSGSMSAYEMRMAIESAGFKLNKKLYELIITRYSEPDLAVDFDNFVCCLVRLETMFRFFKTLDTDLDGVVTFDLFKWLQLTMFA

Cathepsin B = Cathepsin B (Homo sapiens, UniProt P07858); assay: Compound was evaluated for its inhibitory activity against Cathepsin B
[2] = target: T6, Calpain-1 catalytic subunit; assay: Compound was evaluated for its inhibitory activity against the Calpain-1 enzyme

| SMILES | IC50 (Caspase-7) [nM] | IC50 (Caspase-1) [nM] | IC50 (Caspase-9) [nM] | IC50 (Caspase-6) [nM] | IC50 (Prothrombin) [nM] | IC50 (Coagulation factor X) [nM] | IC50 (Caspase-8) [nM] | IC50 (Caspase-3) [nM] | IC50 [1] [nM] | IC50 (Cathepsin B) [nM] | IC50 [2] [nM] |
| --- | --- | --- | --- | --- | --- | --- | --- | --- | --- | --- | --- |
| CC(C)[C@H](NC(=O)OCc1ccccc1)C(=O)NC(CC(=O)O)C(=O)CF (stereo partly specified) | 7 | 20 | 5 | 18 | > 100000 | > 100000 | 7 | 30 | > 10000 | > 10000 | – |
| COC(=O)CC(NC(=O)[C@@H](NC(=O)OCc1ccccc1)C(C)C)C(=O)CF (stereo partly specified) | – | 900 | – | – | > 100000 | > 100000 | – | 1100 | – | 300 | 120 |
